Data on 37 compounds can be found in US9079907B2, “Fused heterocyclic compound and use thereof” (TAKEDA PHARMACEUTICAL COMPANY LIMITED, priority 2006, dated 2015).

Structures can show the parent of a compound that is named as a salt.

Assay [1] concerns female spinal cord-transected rats with bilaterally transected hypogastric nerve and pudendal nerve. As to the kind of experiment: Reflex urethral closure response induced by increased intravesical pressure, with hypogastric and pudendal nerves bilaterally transected. Conditions: for urethral closure response (cmH2O) after drug administration: 10 min after administration; for urethral closure response (cmH2O) after drug administration / urethral closure response (cmH2O) before drug administration: intravesical pressure raised to 50 cmH2O, mean ± SEM, n = 5; for action on the urethral closure response induced by the increased intravesical pressure (in words): i.v., female spinal cord-transected rats with hypogastric and pudendal nerves bilaterally transected.
Protocol: Female SD rats (body weight 200-310 g) were anesthetized with urethane (Wako Pure Chemical Industries, Ltd.), and the spinal cord was transected at T8-9 level to eliminate the micturition reflex. During the operation, halothane (Takeda Pharmaceutical Company Limited) anesthesia was added when necessary. After abdominal section, bladder neck was ligated with a suture thread, and then the hypogastric nerve and pudendal nerve were bilaterally transected. A catheter (PE-90, Clay Adams) was placed in the bladder, and the other end of the bladder catheter was connected to a pressure transducer and a water reservoir (60 ml syringe) of saline via a three-way cock. A microchip transducer catheter (SPR-524, Millar Instruments Inc.) was inserted toward the bladder from the urethral opening, and adjusted using a scale on the catheter surface so that the transducer part is positioned in the urinary tract at 10.0-15.0 mm from the urethral opening.
The changes in the topical pressure within the urinary tract (hereinafter conveniently indicated as urethral internal pressure) as measured by the microchip transducer was transmitted to a computer via an amplifier (blood pressure amplification unit AP-641G; NIHON KOHDEN) and an analog-to-digital converter (MP-100; biopack; sampled at 500 Hz), and recorded on a hard disc. […] The reaction of the urinary tract induced by an increased intravesical pressure was measured 3 times, and the average of the last 2 measures was taken as the value before drug administration. The evaluation item was reflex urethral closure response, and the recorded values were subjected to smoothing process at 500 points to calculate an average urethral internal pressure per 1 sec, after which the value immediately before increase of the intravesical pressure was subtracted from the maximum value on increase of the intravesical pressure and taken as the urethral closure response. […] The drugs were all dissolved in N,N-dimethylformamide/polyethylene glycol 400 (1:1) and administered intravenously at a dose of 0.5 ml/kg.

In assay [2] the target is serotonin 5-HT2C receptor (isoform type VSV, stably expressing CHO cell) (Homo sapiens, UniProt P28335, I156V/I160V/N158S). Put plainly: cell-based. Conditions: for Emax: CHO, read-out: ratio to maximum response by 5-HT, read-out: ratio to maximum response by 5-HT (1 μM).
serotonin 5-HT2C receptor (isoform type VSV, stably expressing CHO cell), sequence (P28335 33-458 I156V/N158S/I160V limits assumed): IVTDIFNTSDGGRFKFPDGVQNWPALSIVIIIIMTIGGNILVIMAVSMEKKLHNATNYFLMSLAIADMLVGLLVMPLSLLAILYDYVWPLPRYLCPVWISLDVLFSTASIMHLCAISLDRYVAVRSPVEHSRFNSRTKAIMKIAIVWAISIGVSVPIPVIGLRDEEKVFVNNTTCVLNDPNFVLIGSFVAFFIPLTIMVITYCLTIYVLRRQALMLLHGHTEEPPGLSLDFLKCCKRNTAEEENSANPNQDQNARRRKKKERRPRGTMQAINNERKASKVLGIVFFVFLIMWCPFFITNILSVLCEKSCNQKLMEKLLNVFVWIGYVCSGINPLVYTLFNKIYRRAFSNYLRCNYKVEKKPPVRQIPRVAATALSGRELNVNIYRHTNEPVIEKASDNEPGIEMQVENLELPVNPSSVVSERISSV
The mark [3] stands for this setting: baseline of the 1 mg/kg i.v. group.

Consider `C[C@H]1CNCCc2ccc(Cl)cc21.Cl` [APD-356], for which the “urethral closure response (cmH2O) after drug administration” value in assay [1] (1 mg/kg i.v.) is given as 8.6 ± 2.7 cmH2O. In addition, in assay [1] (setting [3]), the “urethral closure response (cmH2O) before drug administration” value is 5.3 ± 1.7 cmH2O. Also, in assay [1], the “action on the urethral closure response induced by the increased intravesical pressure (in words)” value was “enhanced the urethral closure response”.
On to `CC(C)(C)OC(=O)N1CCN(c2ccc3c(n2)OCCNC3)CC1` [Example 30, tert-butyl 4-(2,3,4,5-tetrahydropyrido[3,2-f][1,4]oxazepin-8-yl)piperazine-1-carboxylate], for which, in assay [2], the Emax stood at 99.4%.
In the case of `c1cc2c(nc1N1CCCCC1)OCCNC2` [Example 40, 8-piperidin-1-yl-2,3,4,5-tetrahydropyrido[3,2-f][1,4]oxazepine], the Emax in assay [2] stood at 80.8%.
Take `c1cc2c(nc1N1CCOCC1)OCCNC2` [Example 41, 8-morpholin-4-yl-2,3,4,5-tetrahydropyrido[3,2-f][1,4]oxazepine]: the “ratio to maximum response by 5-HT (1 μM)” value in assay [2] came out at 83.0%. The “urethral closure response (cmH2O) after drug administration” value in assay [1] (1 mg/kg i.v.) worked out at 7.5 ± 1.6 cmH2O. Also, the “urethral closure response (cmH2O) before drug administration” value in assay [1] (setting [3]) was found to be 4.6 ± 0.8 cmH2O. In addition, the “action on the urethral closure response induced by the increased intravesical pressure (in words)” value in assay [1] is given as “enhanced the urethral closure response”.
As for `c1cc2c(nc1N1CCCC1)OCCNC2` [Example 43, 8-pyrrolidin-1-yl-2,3,4,5-tetrahydropyrido[3,2-f][1,4]oxazepine bis(trifluoroacetate)], the Emax in assay [2] amounted to 97%.
For the compound `CCN(CC)c1ccc2c(n1)OCCNC2` [Example 44, N,N-diethyl-2,3,4,5-tetrahydropyrido[3,2-f][1,4]oxazepin-8-amine bis(trifluoroacetate)], the Emax in assay [2] was determined as 95.1%.
Regarding `c1cc2c(nc1N1CCCCCC1)OCCNC2` [Example 46, 8-azepan-1-yl-2,3,4,5-tetrahydropyrido[3,2-f][1,4]oxazepine bis(trifluoroacetate)], in assay [2], the Emax amounted to 100%.
On the same count and under the same terms, the value for `CC1CCCCN1c1ccc2c(n1)OCCNC2` (centres unmarked) [Example 49, 8-(2-methylpiperidin-1-yl)-2,3,4,5-tetrahydropyrido[3,2-f][1,4]oxazepine bis(trifluoroacetate)] was 89.5%.
Regarding `c1ccc(CCN2CCN(c3ccc4c(n3)OCCNC4)CC2)cc1` [Example 58, 8-[4-(2-phenylethyl)piperazin-1-yl]-2,3,4,5-tetrahydropyrido[3,2-f][1,4]oxazepine tris(trifluoroacetate)], the Emax in assay [2] stood at 87.1%.
Consider `c1ccc(CCCCN2CCN(c3ccc4c(n3)OCCNC4)CC2)cc1` [Example 67, 8-[4-(4-phenylbutyl)piperazin-1-yl]-2,3,4,5-tetrahydropyrido[3,2-f][1,4]oxazepine tris(trifluoroacetate)], for which the Emax in assay [2] was 124%.
As for `Clc1ccc(-c2ccc3c(n2)OCCNC3)cc1` [Example 79, 8-(4-chlorophenyl)-2,3,4,5-tetrahydropyrido[3,2-f][1,4]oxazepine], the Emax in assay [2] turned out to be 91.1%.
On to `Fc1ccc(-c2ccc3c(n2)OCCNC3)cc1` [Example 81, 8-(4-fluorophenyl)-2,3,4,5-tetrahydropyrido[3,2-f][1,4]oxazepine bis(trifluoroacetate)], for which the Emax in assay [2] was 92.1%.
Regarding `CSc1ccc(-c2ccc3c(n2)OCCNC3)cc1` [Example 96, 8-[4-(methylthio)phenyl]-2,3,4,5-tetrahydropyrido[3,2-f][1,4]oxazepine bis(trifluoroacetate)], the Emax in assay [2] turned out to be 90.3%.
On to `COC(=O)c1ccc(-c2ccc3c(n2)OCCNC3)cc1` [Example 102, methyl 4-(2,3,4,5-tetrahydropyrido[3,2-f][1,4]oxazepin-8-yl)benzoate bis(trifluoroacetate)], for which the Emax in assay [2] worked out at 91.3%.
Turning to `FC(F)(F)Oc1ccc(-c2ccc3c(n2)OCCNC3)cc1` [Example 104, 8-[4-(trifluoromethoxy)phenyl]-2,3,4,5-tetrahydropyrido[3,2-f][1,4]oxazepine bis(trifluoroacetate)], the Emax in assay [2] was found to be 94.6%.
Consider `c1cc(-c2ccc3c(n2)OCCNC3)co1` [Example 112, 8-(3-furyl)-2,3,4,5-tetrahydropyrido[3,2-f][1,4]oxazepine bis(trifluoroacetate)], for which the Emax in assay [2] turned out to be 93%.
Take `CC(C)(C)OC(=O)N1CCN(c2nc3c(cc2F)CNCCO3)CC1` [Example 122, tert-butyl 4-(7-fluoro-2,3,4,5-tetrahydropyrido[3,2-f][1,4]oxazepin-8-yl)piperazine-1-carboxylate]: the Emax in assay [2] was determined as 110%.
As to `CC1CNCc2ccc(N3CCN(C(=O)OC(C)(C)C)CC3)nc2O1` (centres unmarked) [Example 126, tert-butyl 4-(2-methyl-2,3,4,5-tetrahydropyrido[3,2-f][1,4]oxazepin-8-yl)piperazine-1-carboxylate], in assay [2], the Emax came out at 109%.
Turning to `CC1CNCc2ccc(N3CCOCC3)nc2O1` (centres unmarked) [Example 128, 2-methyl-8-morpholin-4-yl-2,3,4,5-tetrahydropyrido[3,2-f][1,4]oxazepine], in assay [2], the Emax was found to be 107%.
Consider `CC1CNCc2ccc(N3CCCCC3)nc2O1` (centres unmarked) [Example 129, 2-methyl-8-piperidin-1-yl-2,3,4,5-tetrahydropyrido[3,2-f][1,4]oxazepine], for which the Emax in assay [2] came to 111%.
On to `C[C@@H]1CNCc2ccc(N3CCOCC3)nc2O1` [Example 130, (+)-2-methyl-8-morpholin-4-yl-2,3,4,5-tetrahydropyrido[3,2-f][1,4]oxazepine], for which the Emax in assay [2] amounted to 105%.
With `C[C@H]1CNCc2ccc(N3CCOCC3)nc2O1` [Example 131, (−)-2-methyl-8-morpholin-4-yl-2,3,4,5-tetrahydropyrido[3,2-f][1,4]oxazepine], the Emax in assay [2] is 94.2%.
For the compound `c1cc2c(nc1N1CCOCC1)OCCNC2` [Example 147, 8-morpholin-4-yl-2,3,4,5-tetrahydropyrido[3,2-f][1,4]oxazepine monohydrochloride], in assay [2], the Emax came to 93.9%.
Consider `c1cc2c(nc1N1CCOCC1)OCCNC2` [Example 148, 8-morpholin-4-yl-2,3,4,5-tetrahydropyrido[3,2-f][1,4]oxazepine monohydrobromide], for which, in assay [2] (monohydrobromide), the “ratio to maximum response by 5-HT (1 μM)” value came to 93.5%.
In the case of `CC1CCC(C)N1c1ccc2c(n1)OCCNC2` (centres unmarked) [Example 155, 8-(2,5-dimethylpyrrolidin-1-yl)-2,3,4,5-tetrahydropyrido[3,2-f][1,4]oxazepine], in assay [2], the Emax is 85.4%.
Take `Br.CC1CCC(C)N1c1ccc2c(n1)OCCNC2` (centres unmarked) [Example 156, 8-(2,5-dimethylpyrrolidin-1-yl)-2,3,4,5-tetrahydropyrido[3,2-f][1,4]oxazepine monohydrobromide]: the “ratio to maximum response by 5-HT (1 μM)” value in assay [2] is on record as 93.4%.
On to `CCC(C)N(C)c1ccc2c(n1)OCCNC2` (centres unmarked) [Example 171, N-(sec-butyl)-N-methyl-2,3,4,5-tetrahydropyrido[3,2-f][1,4]oxazepin-8-amine monohydrobromide], for which, in assay [2], the Emax turned out to be 99.6%.
Consider `CCC(C)N(C)c1ccc2c(n1)OCCNC2` (centres unmarked) [Example 172, N-(sec-butyl)-N-methyl-2,3,4,5-tetrahydropyrido[3,2-f][1,4]oxazepin-8-amine monohydrochloride], for which the “ratio to maximum response by 5-HT (1 μM)” value in assay [2] (monohydrochloride) was 95.3%.
Consider `CCC(C)N(C)c1ccc2c(n1)OCCNC2` (centres unmarked) [Example 173, N-(sec-butyl)-N-methyl-2,3,4,5-tetrahydropyrido[3,2-f][1,4]oxazepin-8-amine dihydrochloride], for which the “ratio to maximum response by 5-HT (1 μM)” value in assay [2] (dihydrochloride) was 95.1%.
For `CC(C)N(C)c1ccc2c(n1)OCCNC2` [Example 177, N-isopropyl-N-methyl-2,3,4,5-tetrahydropyrido[3,2-f][1,4]oxazepin-8-amine], the Emax in assay [2] worked out at 91.5%.
With `CC(C)N(C)c1ccc2c(n1)OCCNC2` [Example 178, N-isopropyl-N-methyl-2,3,4,5-tetrahydropyrido[3,2-f][1,4]oxazepin-8-amine monohydrobromide], the “ratio to maximum response by 5-HT (1 μM)” value in assay [2] (monohydrobromide) is reported as 94.6%.
Turning to `CC(C)c1ccc2c(n1)OCCNC2` [Example 205, 8-isopropyl-2,3,4,5-tetrahydropyrido[3,2-f][1,4]oxazepine dihydrochloride], the Emax in assay [2] was found to be 93.5%.
With `c1cc2c(nc1C1CC1)OCCNC2` [Example 210, 8-cyclopropyl-2,3,4,5-tetrahydropyrido[3,2-f][1,4]oxazepine dihydrochloride], the Emax in assay [2] stood at 108%.
As to `c1cc2c(nc1C1CCC1)OCCNC2` [Example 211, 8-cyclobutyl-2,3,4,5-tetrahydropyrido[3,2-f][1,4]oxazepine dihydrochloride], the Emax in assay [2] is 98%.
Take `c1cc2c(nc1C1CCCC1)OCCNC2` [Example 212, 8-cyclopentyl-2,3,4,5-tetrahydropyrido[3,2-f][1,4]oxazepine dihydrochloride]: the Emax in assay [2] was 91.9%.
With `c1cc2c(nc1C1CCCC1)OCCNC2` [Example 213, 8-cyclopentyl-2,3,4,5-tetrahydropyrido[3,2-f][1,4]oxazepine], the “ratio to maximum response by 5-HT (1 μM)” value in assay [2] is reported as 96.6%.
Take `c1cc2c3c(c1)[C@H]1CCC[C@H]1N3CCNC2` [WAY-163909]: the “urethral closure response (cmH2O) after drug administration” value in assay [1] (3 mg/kg i.v.) is listed as 10.2 ± 1.6 cmH2O. For the same compound, in assay [1] (baseline of the 3 mg/kg i.v. group), the “urethral closure response (cmH2O) before drug administration” value came out at 4.4 ± 0.8 cmH2O. Also, the “action on the urethral closure response induced by the increased intravesical pressure (in words)” value in assay [1] is listed as “enhanced the urethral closure response”.
